These are literature values, as cited in patent US6939558B2, “Intravaginal devices containing progesterone for estrus synchronization and related proceses” (Akzo Nobel N.V., priority 2001, dated 2005).

In this data set the test system is bovines. Conditions: 1 mg Estradiol Benzoate 24 hours after removal of the device.

Take `C[C@]12CC[C@@H]3c4ccc(OC(=O)c5ccccc5)cc4CC[C@H]3[C@@H]1CC[C@@H]2O` [Estradiol Benzoate]: the “ovulation after removal of the device” value was 70 h.
